Laboratory results taken from patent US8143254B2, “Methods for modulating ion channels” (Cornell Research Foundation, Inc., priority 2005, dated 2012).

Assays:
[1] = target: T1, Δ1-28 Kv3.4 channels (Homo sapiens, UniProt Q03721); experiment: TEVC current-voltage relationship of Δ1-28 Kv3.4 in Xenopus oocytes; type: cell-based; conditions: 1 mM
T1 construct: expressed in transfected cells; host or cells: Xenopus oocytes (cRNA injection)
T1 sequence (Q03721 29-635): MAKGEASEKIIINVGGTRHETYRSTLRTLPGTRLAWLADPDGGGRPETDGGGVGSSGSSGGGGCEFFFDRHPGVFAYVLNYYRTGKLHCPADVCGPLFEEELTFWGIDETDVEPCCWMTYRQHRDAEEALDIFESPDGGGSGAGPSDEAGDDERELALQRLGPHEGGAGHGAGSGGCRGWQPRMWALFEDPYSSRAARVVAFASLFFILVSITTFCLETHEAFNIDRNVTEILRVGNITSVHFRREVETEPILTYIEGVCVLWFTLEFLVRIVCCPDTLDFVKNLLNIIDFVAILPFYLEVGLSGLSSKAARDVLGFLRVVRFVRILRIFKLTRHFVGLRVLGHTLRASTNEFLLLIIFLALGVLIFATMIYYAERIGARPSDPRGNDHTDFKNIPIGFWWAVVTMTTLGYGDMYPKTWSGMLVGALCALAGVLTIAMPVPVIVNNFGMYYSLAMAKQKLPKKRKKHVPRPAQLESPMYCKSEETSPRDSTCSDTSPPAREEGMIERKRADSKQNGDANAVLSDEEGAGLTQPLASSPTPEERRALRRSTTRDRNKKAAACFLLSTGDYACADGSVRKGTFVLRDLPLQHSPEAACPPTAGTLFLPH
Experimental: FIG. 6. Opening and block of Kv3.4 by two didabco compounds show voltage-dependency. Normalized I/V relationship for Δ1-28 Kv3.4 currents in oocytes in the absence (control) or presence as indicated of 1 mM JC279.3a or JC638.2a. Peak currents during 2 s pulses to voltages between −80 and +60 mV (protocol upper left insert) were recorded, before and after drug was washed in during successive 0.1 Hz, 2 s pulses from −80 to 0 mV until equilibrium block or opening was observed. Points are means from n=3-16 oocytes; error bars indicate SEM.
Whole-cell two-electrode voltage-clamp (TEVC) recordings were performed on X laevis oocytes expressing cloned Kv2.1, Kv3.4 or Kv4.2 using a Warner OC-725C amplifier and pClamp9 (Axon Instruments, Foster City, Calif.) software. Oocytes were bathed in a small-volume Warner oocyte bath and viewed with a Fisher dissection microscope. Bath solution for whole-cell oocyte recordings was (in mM): 96 NaCl, 4 KCl, 0.7 MgCl2, 1 CaCl2, 10 HEPES (pH 7.4); whole-cell oocyte TEVC pipettes were of 0.2-2 M resistance when filled with 3 M KCl. Experiments were performed 24-48 hours after cRNA injection. For assessment of current-voltage relationships in the absence or presence of dabco derivatives, oocytes were held at −80 mV, stepped for 2 seconds at voltages between −80 mV and +60 mV in 20 mV steps (Kv2.1) or between −80 and +50 mV in 10 mV steps (Kv3.4), then held for 500 ms at −40 mV before returning to the holding potential. For assessment of block during wash-in of dabco derivatives at a single voltage, oocytes were held at −80 mV, and repetitively stepped to 0 mV for 2 s with an interpulse interval of 10 s or 60 s as indicated. A range of concentrations of dabco or dabco derivatives were washed in via the bath solution during repetitive single-voltage pulses (after an initial period of 5 pulses with control solution to ensure current stabilization) until equilibrium block was achieved, to establish dose-responses. Inhibited currents are compared to the current at the end of 5-pulse control period, thus some bar graphs show ‘control’ current values slightly less than 1, and with an error bar, to show how much currents deviate in the absence of drug. Washout was performed after the highest concentration of blocker was washed in. […]
To investigate the mechanism of Kv channel block or opening by didabco compounds, the current-voltage relationship (I/V curve) of Δ1-28 Kv3.4 channels expressed in Xenopus oocytes was assessed using TEVC recording in the absence and presence of a didabco opener (JC279.3a, the 10 CH2-group didabco from FIG. 3) or a didabco blocker (JC638.2a, the para didabco from FIG. 4).

[2] = target: T2, Kv2.1 Y380T (Rattus norvegicus, UniProt P15387, Y380T/Y384T); experiment: TEVC of oocytes expressing Y380T mutant Kv2.1; type: cell-based; conditions: Y380T mutation in Kv2.1
T2 construct: expressed in transfected cells; host or cells: Xenopus laevis oocytes (cRNA from pGA1)
Source text: Kv2.1 mutants were constructed using the QuickChange Multi Site-Directed Mutagenesis Kit (Stratagene, La Jolla, Calif.). Mutant Kv2.1 genes (in the pGA1 oocyte expression vector for oocyte expression) were sequenced in their entirety to confirm appropriate mutations and check for inadvertent mutations, and then subcloned into a wild-type pGA1 backbone. For oocyte expression, Kv3.4 was in pBF1, Kv4.2 was in pRAT. cRNA transcripts were produced from SacII-linearized (Kv2.1), Mlullinearized (Kv3.4) and Not1-linearized (Kv4.2) DNA templates using the T3 (Kv2.1), SP6 (Kv3.4) and T7 (Kv4.2) mMessage mMachine kits (Ambion, Austin, Tex.). cRNA was quantified by spectrophotometry and its size integrity verified by gel electophoresis. Defolliculated stage V and VI Xenopus laevis oocytes (purchased from Nasco, Grand Island, N.Y.) were injected with 5 ng of cRNA encoding Kv2.1, Kv3.4 or Kv4.2. […]
Data analysis: Current-voltage relationships were obtained by measuring peak current during depolarizing pulses. Inhibition constants for DABCO blockers were calculated after generating a dose response curve by fitting with a logistic dose-response function y=A2+[A1−A2/1+(x/x0)^p], where A1 is the maximum response plateau, A2 is the minimum response plateau, x is drug concentrator, x0 is the IC50, and p the Hill slope. […]

c1cc(C[N+]23CCN(CC2)CC3)ccc1C[N+]12CCN(CC1)CC2 [JC638.2α, α,α′-[bis(4-aza-1-azoniabicyclo[2.2.2]octanyl)]p-xylene]
block or opening of Δ1-28 Kv3.4 [1]: blocker
voltage dependence of block or opening of Kv3.4 ([1]; attenuated at more depolarized voltages): voltage-dependent
IC50 [2]: 185 ± 41 µM
slope of dose response curve [2]: 1.3
